Measurements as given in US20230382910A1, “HETEROARYL COMPOUNDS FOR THE TREATMENT OF PAIN” (VERTEX PHARMACEUTICALS INCORPORATED, priority 2022, published 2023).

Each molecule was assayed against human NaV 1.8 (Homo sapiens, UniProt Q9Y5Y9) (assay: E-VIPR Assay Detecting and Measuring NaV Inhibition Properties). Conditions: HEK cells expressing a truncated form of human NaV 1.8; electrical stimulation, membrane potential FRET dyes; read-out: measured IC50 value in the E-VIPR Assay.
human NaV 1.8, sequence (Q9Y5Y9 126-399 limits assumed): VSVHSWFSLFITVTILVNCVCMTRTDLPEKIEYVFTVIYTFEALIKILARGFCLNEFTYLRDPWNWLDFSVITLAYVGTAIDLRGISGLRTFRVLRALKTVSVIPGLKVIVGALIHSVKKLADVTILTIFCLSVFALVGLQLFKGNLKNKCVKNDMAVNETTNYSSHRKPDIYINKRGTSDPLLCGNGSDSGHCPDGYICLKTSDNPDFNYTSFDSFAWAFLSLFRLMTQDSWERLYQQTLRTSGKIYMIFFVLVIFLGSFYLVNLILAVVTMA
human NaV 1.8, sequence (Q9Y5Y9 660-890 limits assumed): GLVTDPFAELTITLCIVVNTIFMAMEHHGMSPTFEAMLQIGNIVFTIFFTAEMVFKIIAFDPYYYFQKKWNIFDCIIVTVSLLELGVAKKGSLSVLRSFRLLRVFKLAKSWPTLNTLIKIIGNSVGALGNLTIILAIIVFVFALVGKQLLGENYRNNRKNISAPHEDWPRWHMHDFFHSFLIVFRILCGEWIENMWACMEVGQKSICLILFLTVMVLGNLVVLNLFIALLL
human NaV 1.8, sequence (Q9Y5Y9 1148-1722 limits assumed): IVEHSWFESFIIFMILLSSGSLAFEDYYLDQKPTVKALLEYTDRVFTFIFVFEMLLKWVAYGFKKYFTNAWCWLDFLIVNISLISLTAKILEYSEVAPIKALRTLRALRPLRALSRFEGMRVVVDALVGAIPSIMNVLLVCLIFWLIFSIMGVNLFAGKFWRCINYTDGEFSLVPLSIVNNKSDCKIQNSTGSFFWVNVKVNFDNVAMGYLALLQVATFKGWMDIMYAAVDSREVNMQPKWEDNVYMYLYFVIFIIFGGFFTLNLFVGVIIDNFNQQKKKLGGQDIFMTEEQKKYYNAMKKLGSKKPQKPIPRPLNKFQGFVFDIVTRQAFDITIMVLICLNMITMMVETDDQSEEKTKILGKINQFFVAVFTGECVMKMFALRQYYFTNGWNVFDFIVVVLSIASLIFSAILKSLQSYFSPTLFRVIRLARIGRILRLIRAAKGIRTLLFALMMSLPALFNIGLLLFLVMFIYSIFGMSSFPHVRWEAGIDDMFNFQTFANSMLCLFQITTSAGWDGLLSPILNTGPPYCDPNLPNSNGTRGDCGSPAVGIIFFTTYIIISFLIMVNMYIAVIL
Format: cell-based
Text: E-VIPR Assay Detecting and Measuring NaV Inhibition Properties
Sodium ion channels are voltage-dependent proteins that can be activated by inducing membrane voltage changes by applying electric fields. The electrical stimulation instrument and methods of use, referred to as E-VIPR, are described in International Publication No. WO 2002/008748 A3 and C.-J. Huang et al. Characterization of voltage-gated sodium channel blockers by electrical stimulation and fluorescence detection of membrane potential, 24 Nature Biotech. 439-46 (2006), both of which are incorporated by reference in their entirety. The instrument comprises a microtiter plate handler, an optical system for exciting the coumarin dye while simultaneously recording the coumarin and oxonol emissions, a waveform generator, a current- or voltage-controlled amplifier, and parallel electrode pairs that are inserted into assay plate wells. Under integrated computer control, this instrument passes user-programmed electrical stimulus protocols to cells within the wells of the microtiter plate.
16-20 hours prior to running the assay on E-VIPR, HEK cells expressing a truncated form of human NaV 1.8 with full channel activity were seeded into microtiter 384-well plates, pre-coated with matrigel, at a density of 25,000 cells per well. 2.5-5% KIR2.1 BacMam virus was added to the final cell suspension before seeding into cell plates. HEK cells were grown in Dulbecco's Modified Eagle's Medium (DMEM) supplemented with 10% FBS (Fetal Bovine Serum, qualified; Sigma #F4135), 1% NEAA (Non-Essential Amino Acids, Gibco #11140), 1% HEPES (Gibco #15630), 1% Pen-Strep (Penicillin-Streptomycin; Gibco #15140) and 5 μg/ml Blasticidin (Gibco #R210-01). Cells were expanded in 5-layer CellSTACK culture chambers or cell culture flasks with vented caps, with 90-95% humidity and 5% CO2.
Compound Loading Buffer (2× concentration): Na/TMA Cl Bath1 Buffer containing HS (omitted in experiments run in the absence of human serum (HS)) 50%, VABSC-1 1 mM, BSA 0.2 mg/ml (in Bath-1), KCl 9 mM, DMSO 0.625%.
Assay Protocol (7 Key Steps):
1) To reach the final concentration in each well, 375 nL of each compound was pre-spotted (in neat DMSO) into polypropylene compound plates at 240× desired final concentration from an intermediate stock concentration of 0.075 mM, in an 11-point dose response, 3-fold dilution, resulting in a top dose of 300 nM final concentration in the cell plate. Vehicle control (neat DMSO), and positive control (an established NaV1.8 inhibitor, 25 μM final in assay in DMSO) were added manually to the outermost columns of each plate respectively. The compound plate was backfilled with 45 μL per well of Compound Loading Buffer resulting in a 240-fold dilution of compound following a 1:1 transfer of compound into the cell plate (see Step 6). Final DMSO concentration for all wells in the assay was 0.625% (0.75% DMSO was supplemented to the Compound Loading Buffer for a final DMSO concentration of 0.625%). This assay dilution protocol was adjusted to enable a higher dose range to be tested in the presence of HS or if the final assay volume was altered.
2) Hexyl Dye Solution was prepared.
3) Cell plates were prepared. On the day of the assay, the media was aspirated, and the cells were washed three times with 80 μL of Bath-1 buffer, maintaining 25 μL residual volume in each well.
4) 25 μL per well of Hexyl Dye Solution was dispensed into the cell plates. The cells were incubated for 20 minutes at room temperature or ambient conditions in darkness.
5) 45 μL per well of Compound Loading Buffer was dispensed into compound plates.
6) The cell plates were washed three times with 80 μL per well of Bath-1 Buffer, leaving 25 µL of residual volume. Then 25 μL per well from compound plate was transferred to each cell plate. The mixture was incubated for 30 minutes at room temperature/ambient conditions. […]
Cc1nc(C(C)(C)C)c(C)nc1-c1cc(=O)c2c(C(N)=O)nccc2[nH]1 [Compound 246, 2-(5-tert-butyl-3,6-dimethyl-pyrazin-2-yl)-4-oxo-1H-1,6-naphthyridine-5-carboxamide] was tested, and the IC50 was 500 to 2000 nM. With CC(C)(C)c1cc(F)c(-c2cc(O)c3c(C(N)=O)nccc3n2)c(F)c1 [Compound 247, 2-(4-(tert-butyl)-2,6-difluorophenyl)-4-hydroxy-1,6-naphthyridine-5-carboxamide] the IC50 was 500 to 2000 nM. Work on Cc1nc(-c2ccccc2)c(Cl)cc1-c1cc(=O)c2c(C(N)=O)nccc2[nH]1 [Compound 273, 2-(5-chloro-2-methyl-6-phenyl-3-pyridyl)-4-oxo-1H-1,6-naphthyridine-5-carboxamide] yielded an IC50 of 500 to 2000 nM. Work on Cc1nc(C2(C)CC2)c(Cl)cc1-c1cc(=O)c2c(C(N)=O)nccc2[nH]1 [Compound 286, 2-[5-chloro-2-methyl-6-(1-methylcyclopropyl)-3-pyridyl]-4-oxo-1H-1,6-naphthyridine-5-carboxamide] yielded an IC50 of 500 to 2000 nM. Cc1nc(C(C)(C)CO)c(Cl)cc1-c1cc(=O)c2c(C(N)=O)nccc2[nH]1 [Compound 297, 2-[5-chloro-6-(2-hydroxy-1,1-dimethyl-ethyl)-2-methyl-3-pyridyl]-4-oxo-1H-1,6-naphthyridine-5-carboxamide] gave an IC50 of 2000 to 5000 nM. Cc1cc(C(C)(C)C)ccc1-c1cc(=O)c2nc(OCCN(C)C)ccc2[nH]1 [Compound 304, 2-(4-tert-butyl-2-methyl-phenyl)-6-[2-(dimethylamino)ethoxy]-1H-1,5-naphthyridin-4-one] was tested, and the IC50 was 500 to 2000 nM. COc1cc(C(C)C)cc(C)c1-c1cc(=O)c2ccccc2[nH]1 [Compound 337, 2-(4-isopropyl-2-methoxy-6-methyl-phenyl)-1H-quinolin-4-one] was tested, and the IC50 was 500 to 2000 nM. Molecule CC(C)(C)c1ccc(-c2cc(=O)c3cnccc3[nH]2)c(CCCO)c1 [Compound 346, 2-[4-tert-butyl-2-(3-hydroxypropyl)phenyl]-1H-1,6-naphthyridin-4-one] has an IC50 of 2000 to 5000 nM. CC(C)(C)c1ccc(-c2[nH]c3ccncc3c(=O)c2Br)c(CCCO)c1 [Compound 347, 3-bromo-2-[4-tert-butyl-2-(3-hydroxypropyl)phenyl]-1H-1,6-naphthyridin-4-one] was tested, and the IC50 was 2000 to 5000 nM. CC(C)CN(CC(C)C)c1nc2ccccc2cc1-c1cc(=O)c2c(C(N)=O)nccc2[nH]1 [Compound 351, 2-[2-(diisobutylamino)-3-quinolyl]-4-oxo-1H-1,6-naphthyridine-5-carboxamide] gave an IC50 of 2000 to 5000 nM. Molecule CCCN(CCC)c1nc2ccccc2cc1-c1cc(=O)c2c(C(N)=O)nccc2[nH]1 [Compound 352, 2-[2-(dipropylamino)-3-quinolyl]-4-oxo-1H-1,6-naphthyridine-5-carboxamide] has an IC50 of 2000 to 5000 nM. For CCCCN(CC)c1nc2ccccc2cc1-c1cc(=O)c2c(C(N)=O)nccc2[nH]1 [Compound 353, 2-[2-[butyl(ethyl)amino]-3-quinolyl]-4-oxo-1H-1,6-naphthyridine-5-carboxamide], the IC50 was 500 to 2000 nM. With Cc1cc(C(C)(C)CO)c(Cl)cc1-c1cc(=O)c2c(C(N)=O)nccc2[nH]1 [Compound 356, 2-[5-chloro-4-(2-hydroxy-1,1-dimethyl-ethyl)-2-methyl-phenyl]-4-oxo-1H-1,6-naphthyridine-5-carboxamide] the IC50 was 2000 to 5000 nM. Cc1nc(C(C)(C)C(=O)O)c(Cl)cc1-c1cc(=O)c2c(C(N)=O)nccc2[nH]1 [Compound 359, 2-[5-(5-carbamoyl-4-oxo-1H-1,6-naphthyridin-2-yl)-3-chloro-6-methyl-2-pyridyl]-2-methyl-propanoic acid] showed an IC50 of 2000 to 5000 nM. CCOC(=O)c1nc(C)c(-c2nccc3[nH]c(-c4cc(Cl)c(C(C)(C)C)cc4C)cc(=O)c23)o1 [Compound 390, ethyl 5-[2-(4-tert-butyl-5-chloro-2-methyl-phenyl)-4-oxo-1H-1,6-naphthyridin-5-yl]-4-methyl-oxazole-2-carboxylate] was tested, and the IC50 was 500 to 2000 nM. In the case of Cn1nc(C(C)(C)C)cc1-c1cc(=O)c2cc(F)ccc2[nH]1 [Compound 417, 2-(5-tert-butyl-2-methyl-pyrazol-3-yl)-6-fluoro-1H-quinolin-4-one], the IC50 is reported as 500 to 2000 nM. In the case of [2H]C([2H])([2H])C(c1cc(C)c(-c2cc(=O)c3c(C(N)=O)nccc3[nH]2)cc1Cl)(C([2H])([2H])[2H])C([2H])([2H])O [Compound 427, 2-(5-chloro-4-(1-hydroxy-2-(methyl-d3)propan-2-yl-1,1,3,3,3-d5)-2-methylphenyl)-4-oxo-1,4-dihydro-1,6-naphthyridine-5-carboxamide], the IC50 is reported as 2000 to 5000 nM.
